These results are taken from paper PMC7363133, “The structure and reactivity of the HoxEFU complex from the cyanobacterium Synechocystis sp. PCC 6803” (The Journal of Biological Chemistry, 2020).

This experiment has as its target T1, HoxEFU (Synechocystis sp. PCC 6803, UniProt P74024).
T1 construct: gene hoxF; heterotrimeric diaphorase subcomplex without HoxYH; Strep-II tag with Ser-Ala linker at C-terminus of HoxF; codon-optimised, pET21, E. coli BL21 deltaiscR; anaerobic purification; with Bidirectional [NiFe] hydrogenase diaphorase subunit HoxE; Bidirectional [NiFe] hydrogenase diaphorase subunit HoxU
T1 sequence (P74024 1-533): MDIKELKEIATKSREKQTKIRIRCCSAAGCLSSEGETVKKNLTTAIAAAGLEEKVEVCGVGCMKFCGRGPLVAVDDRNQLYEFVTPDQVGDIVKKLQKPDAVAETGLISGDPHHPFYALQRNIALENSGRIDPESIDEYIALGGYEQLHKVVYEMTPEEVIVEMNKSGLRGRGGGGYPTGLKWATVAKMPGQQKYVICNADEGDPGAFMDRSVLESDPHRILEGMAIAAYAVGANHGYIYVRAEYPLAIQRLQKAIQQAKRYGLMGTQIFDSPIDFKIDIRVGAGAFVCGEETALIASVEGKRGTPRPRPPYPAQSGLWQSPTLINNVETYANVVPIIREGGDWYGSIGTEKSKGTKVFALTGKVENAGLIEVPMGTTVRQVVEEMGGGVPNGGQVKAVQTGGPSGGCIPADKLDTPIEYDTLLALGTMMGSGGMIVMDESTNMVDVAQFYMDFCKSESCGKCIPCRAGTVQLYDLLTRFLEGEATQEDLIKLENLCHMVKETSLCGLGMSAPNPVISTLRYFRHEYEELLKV
T1 sequence (P74025 1-173 partner): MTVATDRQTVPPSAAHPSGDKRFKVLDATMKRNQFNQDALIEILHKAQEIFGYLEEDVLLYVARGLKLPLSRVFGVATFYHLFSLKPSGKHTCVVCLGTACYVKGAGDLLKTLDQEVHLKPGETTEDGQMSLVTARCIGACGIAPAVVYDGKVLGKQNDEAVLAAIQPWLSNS
T1 sequence (P74022 1-238 partner): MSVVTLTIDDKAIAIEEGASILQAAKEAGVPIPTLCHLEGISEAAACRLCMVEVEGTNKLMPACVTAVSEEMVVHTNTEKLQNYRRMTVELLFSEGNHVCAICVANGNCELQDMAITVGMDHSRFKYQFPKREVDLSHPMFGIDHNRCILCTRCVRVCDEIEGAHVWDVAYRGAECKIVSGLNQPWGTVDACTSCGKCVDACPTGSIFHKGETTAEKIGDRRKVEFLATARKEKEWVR
Description: intrinsic protein fluorescence/FRET titration, equilibrium binding isotherm. The note with it: Hill fit (cooperative); excitation 285 nm, emission 348 nm.
With `NC(=O)C1=CN([C@@H]2O[C@H](COP(=O)(O)OP(=O)(O)OC[C@H]3O[C@@H](n4cnc5c(N)ncnc54)[C@H](O)[C@@H]3O)[C@@H](O)[C@H]2O)C=CC1` [NADH], the equilibrium dissociation constant (Kd) is 0.032 mM. This counts as double-digit micromolar.

`NC(=O)c1ccc[n+]([C@@H]2O[C@H](COP(=O)(O)OP(=O)(O)OC[C@H]3O[C@@H](n4cnc5c(N)ncnc54)[C@H](OP(=O)(O)O)[C@@H]3O)[C@@H](O)[C@H]2O)c1` [NADP^+] had an equilibrium dissociation constant (Kd) of 1.95 ± 0.27 mM.

On to `NC(=O)c1ccc[n+]([C@@H]2O[C@H](COP(=O)(O)OP(=O)(O)OC[C@H]3O[C@@H](n4cnc5c(N)ncnc54)[C@H](O)[C@@H]3O)[C@@H](O)[C@H]2O)c1` [NAD^+], for which the affinity, expressed as Kd, was 1.35 ± 0.07 mM.

Usually Kd stands for the concentration at which binding is half-saturated. Low values mean tighter binding, high ones weaker binding.
